Laboratory results from patent US9301524B2, “Methods for reducing leaf senescence using methyl dihydrojasmonate” (New Biology, Inc., priority 2008, dated 2016).

What was measured:
Yellow Dwarf roses = assay: Foliar MDHJ spray, leaf senescence in potted Yellow Dwarf roses (Example 2); assay type: in vivo; details: one foliar spray
Description: Potted Yellow Dwarf roses were grouped into one of four groups, and each of the groups received one treatment. One group was an untreated control (UTC), while the other three groups were treated with aqueous solutions of MDHJ that differed only in the concentration of MDHJ. There were three plants in each group. Before the trial began, naturally senescing leaves were visible on all plants; these were removed at the time that the trial began. The rose leaves received one foliar spray treatment by applying spray until the point of drip. […] Senescence was indicated by chlorosis and necrosis affecting greater than 50% of an individual leaf. After each evaluation, senescing leaves were removed. [table]

[1] = system: corn ('Kandy Korn', extra sweet) seedlings; assay: Foliar MDHJ spray, leaf senescence in corn seedlings (Example 4); assay type: in vivo; details: 6 days after treatment
Description: Seeds of corn (‘Kandy Korn’, extra sweet) were planted in 2-inch pots. Seedlings were germinated under 16-hour day/8-hour night greenhouse conditions. Plants were placed outdoors and received 5-6 hours of natural, direct light. Eighteen days after planting, seedlings received one of two treatments. • Treatment 1 (n=11): Foliar spray with water—control • Treatment 2 (n=12): Foliar spray of 1 mM MDHJ in water. Plant leaves from both treatments were sprayed until the point of drip and allowed to air dry before being randomly combined into the same growing tray (to provide plants from both treatments with identical growing conditions). […] Plants were observed and visible leaf senescence recorded 6 days after the single treatment. Plants were scored according to presence or absence of senescence on any leaf of the plant. […] Of the plants with senescing leaves, only one leaf per plant had senescence (10%) in the Treatment 2 group.

miniature PARADE® roses = assay: Foliar MDHJ spray, leaf senescence in potted miniature roses (Example 1); assay type: in vivo
Description: Potted miniature […]® roses were evaluated for the effect on leaf senescence of foliar spray treatment with an MDHJ formulation. […] Another group of four plants was sprayed with a formulation comprising 1.5 mM MDHJ, 0.5% TRITON® X-100, and 0.125% canola oil. The treated plants were sprayed on six occasions, on days 1, 3, 12, 29, 31, and 58, by spraying foliage to the point of drip. […] Senescence was indicated by chlorosis and necrosis affecting greater than 50% of an individual leaflet.

[2] = system: spinach seedlings, cultivar 'Merlo Nero'; assay: MDHJ spray, leaf senescence in greenhouse-grown spinach seedlings (Example 3); assay type: in vivo
Description: Greenhouse-grown spinach seedlings, cultivar ‘Merlo Nero,’ were divided into two groups, with eight plants per group. One group was left untreated, while the other group was treated with 0.5 mM MDHJ in 0.1% ethanol by spraying leaves until the point of drip. Treatments occurred on days 1, 4 and 8 of the experiment. On day 6, senescence was noted on some leaves, defined by chlorosis and/or necrosis. Senescence began at the leaf tip and spread towards the petiole. […] All leaves from each plant were then harvested and combined for each treatment. The total number of senescing leaves were counted and taken as a percentage of the total number of leaves per treatment. Senescence was indicated by chlorosis and necrosis affecting greater than 50% of an individual leaf.

plants = details: U.S. Patent Application Publication No. 2009/0082453; cited from earlier work
Solubility in water = assay type: physicochemical
[3] = system: corn, rice, wheat, oat, barley, arabidopsis, sunflower, and zucchini; details: application to intact as well as excised plant leaves; literature; cited from earlier work

Structure (SMILES): CCCCCC1C(=O)CCC1CC(=O)OC (stereo not shown) [MDHJ, methyl dihydrojasmonate]
- rate of naturally senescing leaves compared to the untreated control group (in words) (Yellow Dwarf roses; MDHJ treatment in general (1.5, 3.0, 6.0 mM)): reduced the rate of naturally senescing leaves
- Mean No. Leaves (exhibiting senescence) (Yellow Dwarf roses; Treatment Group 2: 1.5 mM MDHJ + 0.125% TRITON X-100 + 0.5% Canola Oil, Day 3): 27
- Mean No. Leaves (exhibiting senescence) (Yellow Dwarf roses; Treatment Group 2: 1.5 mM MDHJ + 0.125% TRITON X-100 + 0.5% Canola Oil, Day 7): 1
- Mean No. Leaves (exhibiting senescence) (Yellow Dwarf roses; Treatment Group 2: 1.5 mM MDHJ + 0.125% TRITON X-100 + 0.5% Canola Oil, Day 10): 5
- Mean No. Leaves (exhibiting senescence) (Yellow Dwarf roses; Treatment Group 2: 1.5 mM MDHJ + 0.125% TRITON X-100 + 0.5% Canola Oil, Day 14): 13
- Mean No. Leaves (exhibiting senescence) (Yellow Dwarf roses; Treatment Group 2: 1.5 mM MDHJ + 0.125% TRITON X-100 + 0.5% Canola Oil, Day 31): 27
- Mean No. Leaves (exhibiting senescence) (Yellow Dwarf roses; Treatment Group 3: 3.0 mM MDHJ + 0.125% TRITON X-100 + 0.5% Canola Oil, Day 3): 25
- Mean No. Leaves (exhibiting senescence) (Yellow Dwarf roses; Treatment Group 3: 3.0 mM MDHJ + 0.125% TRITON X-100 + 0.5% Canola Oil, Day 7): 1
- Mean No. Leaves (exhibiting senescence) (Yellow Dwarf roses; Treatment Group 3: 3.0 mM MDHJ + 0.125% TRITON X-100 + 0.5% Canola Oil, Day 10): 4
- Mean No. Leaves (exhibiting senescence) (Yellow Dwarf roses; Treatment Group 3: 3.0 mM MDHJ + 0.125% TRITON X-100 + 0.5% Canola Oil, Day 14): 12
- Mean No. Leaves (exhibiting senescence) (Yellow Dwarf roses; Treatment Group 3: 3.0 mM MDHJ + 0.125% TRITON X-100 + 0.5% Canola Oil, Day 31): 25
- Mean No. Leaves (exhibiting senescence) (Yellow Dwarf roses; Treatment Group 4: 6.0 mM MDHJ + 0.125% TRITON X-100 + 0.5% Canola Oil, Day 3): 23
- Mean No. Leaves (exhibiting senescence) (Yellow Dwarf roses; Treatment Group 4: 6.0 mM MDHJ + 0.125% TRITON X-100 + 0.5% Canola Oil, Day 7): 2
- Mean No. Leaves (exhibiting senescence) (Yellow Dwarf roses; Treatment Group 4: 6.0 mM MDHJ + 0.125% TRITON X-100 + 0.5% Canola Oil, Day 10): 5
- Mean No. Leaves (exhibiting senescence) (Yellow Dwarf roses; Treatment Group 4: 6.0 mM MDHJ + 0.125% TRITON X-100 + 0.5% Canola Oil, Day 14): 12
- Mean No. Leaves (exhibiting senescence) (Yellow Dwarf roses; Treatment Group 4: 6.0 mM MDHJ + 0.125% TRITON X-100 + 0.5% Canola Oil, Day 31): 23
- of the plants with senescing leaves, only one leaf per plant had senescence (percentage in brackets) ([1]; Treatment 2: 1 mM MDHJ in water): 10%
- severity of senescence: mean % yellow per senescing leaf (leaf area) ([1]; Treatment 2: 1 mM MDHJ in water, water control 43%): 15%
- % of plants with two senescent leaves ([1]; Treatment 2: single foliar spray of 1 mM MDHJ in water (n = 12), water control 27%): 0%
- % of plants with one senescent leaf ([1]; Treatment 2: single foliar spray of 1 mM MDHJ in water (n = 12), water control 36%): 25%
- % of plants with senescing leaves ([1]; Treatment 2: single foliar spray of 1 mM MDHJ in water (n = 12), water control 64%): 27%
- senescing leaves (in words) (miniature PARADE® roses; 1.5 mM MDHJ foliar spray, sixty-five days after treatment, untreated up to 9.4% of leaflets): no senescing leaves
- % Leaflets exhibiting senescence (miniature PARADE® roses; individual plant, foliar spray 1.5 mM MDHJ, 0.5% TRITON X-100, 0.125% canola oil on days 1, 3, 12, 29, 31, 58, analyzed 65 days after first treatment, senescence = chlorosis and necrosis >50% of leaflet): 0.0%
- % of Leaves Exhibiting Senescence ([2]; 0.5 mM MDHJ in 0.1% ethanol sprayed on days 1, 4 and 8, counted day 8, untreated 34.6%): 8.6%
- % of Plants Exhibiting Senescence ([2]; 0.5 mM MDHJ in 0.1% ethanol, day 8, eight plants, untreated 87.5%): 37.5%
- Number of Plants Exhibiting Chlorosis or Necrosis ([2]; 0.5 mM MDHJ in 0.1% ethanol, day 8, of 8 plants, untreated 7): 3
- Number of Senescent Leaves ([2]; 0.5 mM MDHJ in 0.1% ethanol, day 8, of 93 leaves in total, untreated 36 of 104): 8
- effect on biotic attack and disease in plants (in words) (plants): effective in reducing biotic attack and disease in plants
- solubility in water (in words) (Solubility in water): relatively low solubility in water

Structure (SMILES): CC/C=C\CC1C(=O)CCC1CC(=O)O (stereo not shown) [jasmonic acid, 2-(3-oxo-2-(pent-2-enyl)cyclopentyl)acetic acid]
- effect on leaf senescence (in words) [3]: promotes or accelerates leaf senescence

Structure (SMILES): CC/C=C\CC1C(=O)CCC1CC(=O)OC (stereo not shown) [methyl jasmonate]
- effect on leaf senescence (in words) [3]: promotes or accelerates leaf senescence
